Where no end group is shown, it is not given here.
Key:
[1] = target: Ab126 capture of the csPCNA isoform present in recombinant PCNA (Homo sapiens, UniProt P12004); test: Sandwich ELISA with Ab126 capture antibody and competing peptide; format: binding; details: Ab126 capture 1 μg/well, C20 detection; peptide 0.024-2400 ng/well; FIG. 15B
Method: (§1) A sandwich ELISA was performed in which either the csPCNA specific Ab126 antibody (1 μg/well) or the non-specific PCNA antibody C20 (1 μg/well) was immobilized to the ELISA plate, and used to capture the recombinant PCNA used in the assay. Residual binding sites on the ELISA plate were blocked with BSA, and recombinant PCNA was incubated with the immobilized capture antibody in the presence of a range of concentrations of competing peptide (UMPB6—(0.024 ng/well-2400 ng/well)). After washing off unbound PCNA, the bound protein was detected with the C20 antibody in the first case, and with Ab126 in the second case. These detection antibodies were added to each well of the ELISA plate. The appropriate alkaline phosphatase conjugated secondary anti-rabbit or anti-goat IgG antibody was incubated with the bound antibody in each of the ELISA plate wells, and after washing away non-specifically bound antibody with PBS-0.05% Tween 20, the amount of detection antibody bound to the captured PCNA was determined by incubating the secondary antibody remaining in each well with 1 mg/ml of p-nitrophenolphosphate for 30 minutes.

[2] = target: C20 antibody capture of recombinant PCNA (Homo sapiens, UniProt P12004); test: Sandwich ELISA with C20 capture antibody and competing peptide; format: binding; details: C20 capture 1 μg/well, Ab126 detection; peptide 0.024-2400 ng/well; FIG. 15B
C20 antibody capture of recombinant PCNA, sequence (P12004 whole entry): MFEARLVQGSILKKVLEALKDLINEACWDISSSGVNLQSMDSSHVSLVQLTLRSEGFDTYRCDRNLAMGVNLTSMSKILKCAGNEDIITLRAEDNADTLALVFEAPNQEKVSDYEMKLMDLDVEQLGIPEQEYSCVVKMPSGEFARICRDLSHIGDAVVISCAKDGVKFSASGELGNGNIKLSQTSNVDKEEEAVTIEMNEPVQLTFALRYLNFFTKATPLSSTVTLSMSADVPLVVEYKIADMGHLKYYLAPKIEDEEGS
Method: as §1

Ab126 capture of the csPCNA isoform present in recombinant PCNA, sequence (P12004 whole entry, canonical isoform): as the sequence (P12004 whole entry) above

- apparent IC50 for competing for the capture antibody [1]: over 1 μg/well
- effect on ability of C20 antibody to capture recombinant PCNA [2]: no detectable effect
Sequence: LGIPEQEY [UMPB6]
